Results reported in patent US4980378A, “Biodegradable absorption enhancers” (priority 1988, dated 1990).
Where two headings read alike, the source gives them in different places. Each block holds one compound with its values, some of them ahead of it.

Columns and labels:
[1] = intraperitoneal administration; cited from earlier work
[2] = Transdermal penetration of indomethacin from ointment across shed snake skin (vertical diffusion cell); format: in vitro ADME, black rat snake (Elahe obsoleta)
Method: Ointments were prepared by mixing 100 mg (1%) indomethancin, 500 mg (5%) penetration enhancer and 9400 mg (94%) petrolatum at 55°-60°C. to give a homogenous dispersion of indomethacin. In each transport study, 30 mg of ointment containing […] of indomethacin was applied.
(§1) A whole shed snake skin from the molt of adult Elahe obsoleta (black rat snake) was obtained from the Animal Care Unit of the University of Kansas. Only the dorsal side of the shed snake skin was used for in vitro penetration studies. The head and tail sections of the snake skin was removed and the remainder of the skin was cut randomly into sections of approximately 2 inches by 2 inches. Each piece of snake skin was hydrated overnight by first soaking the skin in water (about 5 to 10 minutes) until it could be stretched and then placing it on a plastic pan which held some water. The pan was floated on a water-bath at 32° C. overnight.
For the transport studies using ointments, approximately 30 mg of ointment prepared as described in Example 5 was smeared evenly on an area of the 2"×2" snake skin. The ointment was smeared into an essentially circular area approximately 1.77 cm^2 and having a diameter of approximately 15 mm. The snake skin was then mounted on top of the receptor cell of a vertical diffusion cell assembly in which a small magnetic bar was inserted and filled with an isotonic buffer. A rubber o-ring was placed on top of the skin followed by the placement of the donor cell. The two cells were clamped together and transferred to a water-bath (32° C.) which had several magnetic stirrers placed underneath to stir the contents of the diffusion cells. Samples from the cells were withdrawn periodically by gravity by inputting fresh isotonic buffer into the cell inlets. The first five drops were discarded and the following […] drops were collected for analysis. These nine drops of sample solution were approximately equivalent to about 0.20 ml.
The samples were analyzed for the concentration of indomethacin using a Perkin-Elmer ISS-100 HPLC apparatus with a Perkin-Elmer LC90 UV spectrophotometric detector and a Perkin-Elmer ISS-100 automatic sampler with the detection wavelength set at 260 nm. The peak heights of the chromatograms were recorded on a Perkin-Elmer LCI-100 Laboratory Computing Integrator. A reverse phase column, RP-8 Spheri-5, 4.6×100 mm and a guard column OD-GU, purchased from Brownlee Labs, were used in conjunction with the HPLC system. The flow rate was 1.0 ml/min and the solvent system was a mixture of acetonitrile (50%) and a 0.01 M phosphate buffer (pH 3.0) (50%).
The concentration in each sample was interpreted from a standard curve which was obtained by plotting the peak areas obtained from HPL chromatograms versus four different standard solutions of indomethacin. The standard curves were linear over a range of concentrations from 2.5 to 10 µg/ml. The receptor cell volume was calibrated by weighing the amount of water in the cell. The first sample needs no concentration correction. However, the concentration in the subsequent samples can be corrected by the following equation: [formula] where Xi is number of microgram of indomethacin in the i^th sample. Yi is the concentration correction for i-l sample. The volume withdrawn for each sampling is about 0.20 ml.
(§2) Statistical analyses were performed using the Student's t-test.
Relative penetration enhancements (%) were calculated by [formula]
Azone was selected as the for comparison since it is claimed to excellent enhancer although it is too toxic; was assigned a value of 100% enhancement.
Penetration that was equal the penetration of Azone was reported as 100% rela penetration. All of the relative enhancements in Table 3 are based on the early stage or hours o penetration studies.
At least 3 or 4 cells were used for each enhancer and mean val (μg) of indomethacin in the receptor cells are plotted versus time in hours.

[3] = format: in vitro ADME, black rat snake (Elahe obsoleta)
Method: Patches were prepared by first dissolving 300 mg indomethacin, 400 mg penetration enhancer, 300 mg polyethylene glycol 400 and 800 mg hydroxypropyl cellulose in 20 ml of ethanol. That viscous solution was spread on a backing layer, which was a film of ethoxycellulose, with 0.9 mm of thickness. After drying at 40° C. for one hour, two layer film patches were obtained. Circles with a diameter of 12 mm were used for the transport studies.
as §1, §2

[4] = indomethacin ointment, 5% enhancer, relative to Azone = 100%, early stage of penetration studies, 32° C.

Structure (SMILES): CCCCCCCCCCCCN1CCCCCC1=O [Azone, 1-Dodecylazacycloheptane-2-One, reference compound]
LD50 [1]: approximately 232 mg/kg | Relative Enhancement [2]: 100% | indomethacin detected in receptor cells ([2]; ointment, early stage of less than 12 hours): only a few

Structure (SMILES): CCCCCCCCCCCCCCOC(=O)CN(C)C [Compound No. 1, tetradecyl (N,N-dimethylamino)acetate]
Relative Enhancement [2, 4]: 100%

steady state flux for indomethacin [3]: 3.84 ± 0.57 µg/h | steady state flux ratio versus dodecyl alcohol [3]: 2.5 times | time to reach steady state flux of indomethacin [3]: about 2 hours | Relative Enhancement [2]: 200% | speed of effect compared with Azone [2]: faster than that of Azone | transport of indomethacin compared with that accelerated by Azone [2]: twice
Structure (SMILES): CCCCCCCCCCCCOC(=O)CN(C)C [Compound No. 2, dodecyl (N,N-dimethylamino)acetate]

Relative Enhancement [2]: 250%
Structure (SMILES): CCCCCCCCOC(=O)CN(C)C [Compound No. 4, octyl (N,N-dimethylamino)acetate]

Structure (SMILES): CCCCCCCCCCCCOC(=O)CN(CC)CC [Compound No. 5, dodecyl (N,N-diethylamino)acetate]
Relative Enhancement [2, 4]: 70%

Structure (SMILES): CCCCCCCCCCOC(=O)CN1CCN(C)CC1 [Compound No. 6, Decyl (4-methyl-1-piperazinyl)acetate]
Relative Enhancement [2, 4]: 40%

Structure (SMILES): CCCCCCCCCCOC(=O)CN(C)C [compound 3, decyl (N,N-dimethylamino)acetate]
Relative Enhancement [2, 4]: 380%

steady state flux for indomethacin [3]: 1.49 ± 0.21 µg/h | time to reach steady state flux of indomethacin [3]: about 5 hours
Structure (SMILES): CCCCCCCCCCCCO [dodecyl alcohol, reference compound]
